Data reported in US10214507B2, “Carbazole-containing amides, carbamates, and ureas as cryptochrome modulators” (Reset Therapeutics, Inc., priority 2014, dated 2019).

Key:
[1] = tested on: core clock gene mRNAs in liver of Balb/c mice; assay: 24 hour gene expression study, liver mRNA by RT-qPCR, Balb/c mice; format: in vivo, mouse; details: 50 mg/kg BID PO
Description: E.Z.N.A.® HP Total RNA Isolation Kits (R6812-01 and the protocol described in the Manual, Revised 2010) were utilized to prepare and isolate RNA from the liver samples. To prepare the RNA samples, 10-30 mg of sample was removed from RNA-Later and placed in a 1.5 ml microfuge tube. GTC lysis buffer (700 μl) was added to the tissue, which was homogenized with a rotor-stator homogenizer (e.g. Tissue-Tearor, Model #985370 BioSpec Products with 4.5 mm probe, Cat. #985370-04), and then centrifuged at full speed (>13,000×g) for 5 minutes. The cleared supernatant was transferred by pipetting to a DNA Clearance Column Pre-inserted in a 2 mL Collection Tube. The assembled column was centrifuged at 13,000×g for 1 minute, and the flow-through was saved. An equal volume (700 μl) of 70% ethanol was added to the lysate and mixed. The sample was then applied to a HiBind RNA spin column placed into a 2 ml collection tube, which was centrifuged at 10,000×g for 60 seconds at room temperature. RNA Wash Buffer I (250 μl) was added by pipetting directly onto a new HiBind RNA column inserted in a 2 ml collection tube. The assembled column was centrifuged at 10,000×g for 60 seconds. The RNA column was placed into a new 2 ml collection tube. DNase I stock solution is pipetted (75 μl) directly onto the surface of the HiBind RNA resin in each column (Using DNAse Digestion with RNase Free DNase Set (E1091): for each HiBind RNA column, the DNase I stock solution was prepared as followed: E.Z.N.A.® DNase I Digestion Buffer 73.5μl, RNase Free DNase I (20 Kunitz/μl) 1.5 μl=Total Volume 75 μl.). The column with bound RNA was incubated at room temperature (25-30° C.) for 15 minutes. RNA Wash Buffer I (500 μl) was added to the column and placed on a bench top for 2 minutes. After centrifuging at 10,000×g for 60 seconds, discarding the flow-through, 500 μl of RNA Wash Buffer II was added and centrifuged at 10,000×g for 60 seconds. Another 500 μl of RNA Wash Buffer II was added and the column assembly was centrifuged at 10,000×g for 60 seconds. The column was centrifuged for 2 minutes at maximum speed to completely dry the HiBind matrix. […]
RediPlate 96 RiboGreen RNA Quantification Kit (Invitrogen) RediPlate standard curve was prepared by transferring 20 μl reconstituted RNA standard to a RediPlate well reconstituted in 180 μl RediPlate TE buffer. […] After transferring 5 μl to RediPlate well reconstituted in 195 μl TE buffer and incubating 10 min. at RT, Fluorescence Intensity of wells with standards and samples were read in a Tecan M200 with Excitation set at 480 nm and Emission set at 520 nm with the gain set to −70%. […] A standard curve was generated in GraphPad Prism and sample readings (unknowns) are interpolated via linear regression analysis, and the RNA sample concentrations were calculated. […]

[2] = target: FAD-binding domain of human CRY1 protein (hCRY1) (Homo sapiens (Human), UniProt Q16526); assay: Thermal shift binding assay (differential scanning fluorimetry); details: purified hCRY1 FADBD, Sypro-Orange
Chain of FAD-binding domain of human CRY1 protein (hCRY1) (Q16526 1-494): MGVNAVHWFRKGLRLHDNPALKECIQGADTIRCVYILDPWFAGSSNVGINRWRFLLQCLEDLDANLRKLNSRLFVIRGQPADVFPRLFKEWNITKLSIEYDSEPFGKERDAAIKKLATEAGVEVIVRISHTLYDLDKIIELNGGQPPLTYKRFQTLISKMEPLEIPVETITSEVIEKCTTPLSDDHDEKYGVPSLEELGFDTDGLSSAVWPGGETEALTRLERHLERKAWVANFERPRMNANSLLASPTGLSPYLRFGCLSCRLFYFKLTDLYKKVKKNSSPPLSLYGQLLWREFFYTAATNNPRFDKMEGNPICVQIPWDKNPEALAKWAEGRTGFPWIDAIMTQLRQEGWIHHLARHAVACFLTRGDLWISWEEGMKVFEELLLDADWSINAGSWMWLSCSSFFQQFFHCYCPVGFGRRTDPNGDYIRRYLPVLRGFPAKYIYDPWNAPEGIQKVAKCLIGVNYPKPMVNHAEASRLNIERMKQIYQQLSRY
Description: Binding of compounds to the isolated FAD-binding domain of human CRY1 protein (hCRY1) was determined using a differential scanning fluorimetry (‘thermal shift’) assay (Pantoliano et al. (2001) J Biomol Screening 6, 429; Niesen et al. (2007) Nature Protocols 2, 2212). The FAD-binding domain of hCRY1 (amino acid residues 1-494) with a C-terminal Myc-DDK tag (FADBD), was produced by transient transfection of HEK293T cells (Catalog # CRL-3216, American Type Culture Collection) and purified by anti-FLAG affinity chromatography (Catalog # A2220, Sigma-Aldrich). FADBD (0.5 μg per well) was incubated with dilutions of compounds in DMSO (5% DMSO final concentration in reaction) in 17.5 μl Tris-buffered saline (TBS) for 10 minutes on ice, then 2.5 μl of 8× Sypro-Orange Dye (Life Technologies) was added to each well. Triplicate wells were assayed for each compound concentration. The melting temperatures were measured in an ABI7500 quantitative PCR instrument using the melt curve mode with a thermal profile of 2 minutes at 25° C., followed by a ramp rate of 1° C./minute up to 99° C. The melting temperature for each well was determined from the first derivative of the melt curve. The change in melting temperature (ΔTm) was obtained by subtraction of the melting temperature of the FADBD in 5% DMSO alone.

For `O=C1NCCN1CC(O)Cn1c2ccc(F)cc2c2cc(F)ccc21` (centres unmarked) [Compound 72, 1-(3-(3,6-difluoro-9H-carbazol-9-yl)-2-hydroxypropyl)imidazolidin-2-one], the “Cry2 mRNA daytime peak in liver” value [1] was “strongly attenuated”, the “Bmal1 mRNA in liver” value ([1]; at ZT8 and 32 hours after original ZT0) was “substantially increased” and the “Cry1 mRNA in liver” value ([1]; peak of expression in dark period) was “suppressed”. The “Per2 mRNA in liver over 24 hours” value ([1]; vs vehicle) was “suppressed” and the “change in melting temperature (ΔTm)” value [2] was “dose-dependent increase”.
